# Laboratory results published in paper PMC7168207, “Dibasic Derivatives of Phenylcarbamic Acid as Prospective Antibacterial Agents Interacting with Cytoplasmic Membrane” (Antibiotics, 2020).
# Several values for one entry are separate records, joined by “and”; a condition that tells them apart may be missing. Equal entries are not always repeated. Where two headings read alike, the source gives them in different places.
# Columns and labels:
# [1] = tested on: S. aureus ATCC 29213 biofilm; experiment: biofilm inhibition assay (crystal violet); assay type: cell-based, Staphylococcus aureus; conditions: ≥80% inhibition of biofilm formation; for MBIC80 (minimum biofilm inhibitory concentration): 48 h
# Method: (§1) The ability of compounds 1f, 1g, and 1h to inhibit biofilm growth and destroy the matured biofilm of S. aureus ATCC 29213 was investigated. The inhibitory activity was studied by the method with crystal violet. The activity to disrupt matured biofilm was evaluated as a decrease of metabolic activity using the MTT assay.
# The plates were inoculated by inoculum of S. aureus ATCC 29213 grown in TSB + 2% glucose to exponential phase. Before the inoculation of the plate, the original inoculum was diluted to 1 McFarland and then 1:100 in fresh TSB + 2% glucose, to reach the final concentrations in the wells of […]. […] The plates were incubated at 37 °C for 48 h. After incubation, the contents of the wells were removed, and the plates were washed three times by sterile PBS. After drying, 125 μL of 0.5% crystal violet was added to each well and the plates were stained at room temperature for 20 min. Then the dye was removed, and the plates were washed three times by sterile PBS. The colored biofilm was detached from the wells using 33% solution of acetic acid. The absorbance at 595 nm was measured. As a blank, a non-inoculated plate treated in the same way was used. […] The minimum biofilm inhibitory concentration was the lowest concentration of the compounds, which inhibited the growth of 80% bacteria compared to the growth control. The experiment was made in duplicate and repeated at least three times.
# [2] = tested on: S. aureus ATCC 29213 biofilm; experiment: biofilm susceptibility / eradication of preformed biofilm (MTT); assay type: cell-based, Staphylococcus aureus; conditions: for MBEC80 (minimum biofilm eradication concentration): 80% reduction of metabolic activity of preformed biofilm, 24 h
# Method: as §1
# Biofilms were grown as described above but without the presence of the compounds. After 48 h of incubation at 37 °C, the contents of the wells were removed, and the plates were washed three times by sterile PBS. After washing, 100 µL of tested compounds in CaMH were added to the wells. […] A growth control containing 2.5% of DMSO in CaMH was included. The plates were incubated at 37 °C for 24 h, then the solutions of compounds were removed, and the plates were gently washed three times by sterile PBS. Bacterial viability was analyzed using 100 µL of 0.05 mg/mL MTT (3-(4,5-dimethylthiazol-2-yl)- 2,5-diphenyltetrazolium bromide) in PBS in each well. The plates with MTT were incubated at 37 °C for 1–2 h in darkness, until the blue formazan crystals appeared. MTT solution was removed and the plates were washed once by PBS. Crystals of formazan were dissolved using 17% sodium dodecysulphate in 40% dimethylformamid. The absorbance at 570 nm was measured and the percentage of eradication was counted according to the equation (3) % of eradication = 100 − OD570S/OD570C × 100 where OD570S is the absorbance of the sample at 570 nm and OD570C is the absorbance of the growth control at 570 nm. The minimum biofilm eradication concentration was the lowest concentration of the compound, which reduced the metabolic activity of the biofilm by 80% compared to the growth control. The experiment was made in duplicate and repeated at least three times.
# [3] = tested on: vancomycin-resistant enterococci VRE 368; experiment: MIC, broth microdilution; assay type: cell-based, Enterococcus faecalis; conditions: VRE2 = VRE 368; for MIC: read-out: MICs
# Method: (§2) The modified broth microdilution method was used for in vitro evaluation of minimum inhibitory concentration. A small portion of bacterial colony cultivated overnight onto nutrient agar (Oxoid, Basingstoke, UK) with 5% bovine blood was suspended in sterile phosphate-buffered saline to get cell density 0.5 McFarland. This inoculum was diluted to reach the final concentration of bacterial cells 5 × 10^5 CFU/mL in the wells. […] For plates with staphylococci, cation adjusted Mueller–Hinton (CaMH) broth (Oxoid) was used; enterococci were cultivated in brain heart infusion (BHI, Oxoid). […] A drug-free control and a sterility control were included. Inoculated plates were incubated in aerobic atmosphere at 37 °C overnight. […] After evaluation of MICs, 10 µL of aliquots from the wells were put onto Mueller–Hinton agar. The agar plates were cultivated at 37 °C for 24 h. The minimum bactericidal concentration (MBC) was defined as the lowest concentration of the compound that killed 99.9% of the bacteria compared to the starting inoculum.
# [4] = tested on: vancomycin-resistant enterococci VRE 342B; experiment: MIC, broth microdilution; assay type: cell-based, Enterococcus faecalis; conditions: VRE1 = VRE 342B; for MIC: read-out: MICs
# Method: as §2
# [5] = tested on: vancomycin-resistant enterococci VRE 725B; experiment: MIC, broth microdilution; assay type: cell-based, Enterococcus faecalis; conditions: VRE3 = VRE 725B; for MIC: read-out: MICs
# Method: as §2
# E. faecalis ATCC 29212 = experiment: MIC, broth microdilution; assay type: cell-based, Enterococcus faecalis; conditions: EF = E. faecalis ATCC 29213
# Method: as §2
# S. aureus ATCC 29213 = experiment: MIC, broth microdilution; assay type: cell-based, Staphylococcus aureus
# Method: as §2
# [6] = tested on: methicillin-resistant S. aureus 63718; experiment: MIC, broth microdilution; assay type: cell-based, Staphylococcus aureus; conditions: MRSA1 = S. aureus 63718; for MIC: read-out: MICs
# Method: as §2
# [7] = tested on: methicillin-resistant S. aureus SA 3202; experiment: MIC, broth microdilution; assay type: cell-based, Staphylococcus aureus; conditions: MRSA3 = SA 3202; for MIC: read-out: MICs
# Method: as §2
# [8] = tested on: methicillin-resistant S. aureus SA 630; experiment: MIC, broth microdilution; assay type: cell-based, Staphylococcus aureus; conditions: MRSA2 = SA 630; for MIC: read-out: MICs
# Method: as §2
# [9] = tested on: human monocytic leukemia THP-1 cells; experiment: in vitro antiproliferative assay (WST-1); assay type: cell-based; conditions: THP-1 cells, WST-1, 24 h, read-out: Tox IC50
# Method: The preliminary in vitro screening of the antiproliferative effect of the investigated compounds was performed using a Water Soluble Tetrazolium salts-1 (WST-1) assay kit and a human monocytic leukemia THP-1 cell line by means of the method described recently. The principle of the WST-1 assay kit is the […] mitochondrial dehydrogenases by antiproliferative compounds. The activity of this enzyme directly correlates with the number of metabolically active cells in the culture. The antiproliferative effect was evaluated as the IC50 value (the concentration of the compound causing 50% inhibition of cell proliferation).
# Human monocytic leukemia THP-1 cells were used for in vitro antiproliferative assay. Cells were obtained from the European Collection of Cell Cultures (ECACC, Salisbury, UK) and routinely cultured in RPMI (Roswell Park Memorial Institute) 1640 medium supplemented with 10% fetal bovine serum, 2% L-glutamine, 1% penicillin, and streptomycin at 37 °C with 5% CO2. Cells were passaged at approximately one-week intervals. The antiproliferative activity of the compounds was determined using a Water Soluble Tetrazolium Salts-1 (WST-1, 2-(4-iodophenyl)-3-(4-nitrophenyl)-5-(2,4-disulfophenyl)-2H-tetrazolium) assay kit (Roche Diagnostics, Mannheim, Germany) according to the manufacturer’s instructions. The tested compounds were dissolved in DMSO and added in various compound concentrations to the cell suspension in the culture RPMI 1640 medium. The maximum concentration of DMSO in the assays never exceeded 0.1%. Subsequently, the cells were incubated at 37 °C with 5% CO2 for 24 h. For WST-1 assays, cells were seeded into 96-well plates (5 × 10^4 cells/well in 100 μL culture medium) in triplicate in serum-free RPMI 1640 medium, and measurements were taken 24 h after the treatment with the compounds. The median inhibition concentration values, IC50, were deduced through the production of a dose-response curve. All data were evaluated using GraphPad Prism 5.00 software (GraphPad Software, San Diego, CA, USA).
# [10] = Enterococcus faecalis, ATCC 29212 / ATCC 29213
# [11] = Staphylococcus aureus, ATCC29213, SA = S. aureus ATCC 29213, read-out: MICs
# [12] = Staphylococcus aureus, ATCC29213, Table 7, planktonic cells of S. aureus ATCC 29213, read-out: MIC
# [13] = SA = S. aureus ATCC 29213, read-out: MICs
# [14] = Table 7, planktonic cells of S. aureus ATCC 29213
MIC ([3]; Enterococcus),MIC ([4]; Enterococcus),MIC ([5]; Enterococcus),MIC (E. faecalis ATCC 29212; [10]),MIC (S. aureus ATCC 29213; [11]),MIC (S. aureus ATCC 29213; [12]),MIC ([6]; Staphylococcus aureus),MIC ([7]; Staphylococcus aureus),MIC ([8]; Staphylococcus aureus),Compound,MBIC80 (minimum biofilm inhibitory concentration) [1],MBEC80 (minimum biofilm eradication concentration) [2],"IC50 ([9]; Homo sapiens, THP-1, 24 h)",MICs [3],MIC [3],MICs [4],MIC [4],MICs [5],MIC [5],MIC (E. faecalis ATCC 29212),MICs (E. faecalis ATCC 29212),further results
> 256 µg/mL and > 1080 µM,> 256 µg/mL and > 1080 µM,> 256 µg/mL and > 1080 µM,> 256 µg/mL and > 1080 µM,> 256 µg/mL and > 1080 µM,> 256 µg/mL,> 256 µg/mL and > 1080 µM,> 256 µg/mL and > 1080 µM,> 256 µg/mL and > 1080 µM,"CCN(CC)CCOC(=O)c1ccc(N)cc1 [PRC, procaine, reference compound]",>256 µg/mL,>256 µg/mL,> 300000 nM,,,,,,,,,
,,,,,,,,,"carbethopendecinium bromide [CRB, reference compound]",0.25 µg/mL,64 µg/mL,,0.25 µg/mL,0.59 µM,0.5 µg/mL,1.18 µM,0.5 µg/mL,1.18 µM,1.18 µM,0.5 µg/mL,minimum biofilm inhibitory concentration relative to MIC against planktonic cells [1]: comparable to its MIC; MICs (S. aureus ATCC 29213; SA = S. aureus ATCC 29213): 0.25 µg/mL; MIC (S. aureus ATCC 29213; [13]): 0.59 µM; MIC (S. aureus ATCC 29213; [14]): 0.25 µg/mL; MICs [6]: 0.25 µg/mL; MIC [6]: 0.59 µM; MICs [7]: 2 µg/mL; MIC [7]: 4.73 µM; MICs [8]: 0.5 µg/mL; MIC [8]: 1.18 µM; IC50 [9]: 1730 ± 80 nM
0.5 µg/mL and 1.26 µM,0.5 µg/mL and 1.26 µM,0.5 µg/mL and 1.26 µM,1 µg/mL and 2.53 µM,0.25 µg/mL and 0.63 µM,0.25 µg/mL,0.25 µg/mL and 0.63 µM,1 µg/mL and 2.53 µM,0.5 µg/mL and 1.26 µM,"CCCCCCCCCCCCCCCC[N+](C)(C)Cc1ccccc1 [CTC, cetalkonium chloride, reference compound]",0.25 µg/mL,>256 µg/mL,1290 ± 70 nM,,,,,,,,,activity on preformed biofilm [2]: did not show any activity on preformed biofilm
,,,,,,,,,"CCCCCCCCCCCCOS(=O)(=O)[O-].[Na+] [SDS, sodium dodecyl sulfate, reference compound]",32 µg/mL,128 µg/mL,,128 µg/mL,443 µM,256 µg/mL,887 µM,128 µg/mL,443 µM,443 µM,128 µg/mL,MICs (S. aureus ATCC 29213; SA = S. aureus ATCC 29213): 128 µg/mL; MIC (S. aureus ATCC 29213; [13]): 443 µM; MIC (S. aureus ATCC 29213; [14]): 128 µg/mL; MICs [6]: 128 µg/mL; MIC [6]: 443 µM; MICs [7]: 64 µg/mL; MIC [7]: 222 µM; MICs [8]: 64 µg/mL; MIC [8]: 222 µM
> 256 µg/mL and > 968 µM,> 256 µg/mL and > 968 µM,> 256 µg/mL and > 968 µM,> 256 µg/mL and > 968 µM,> 256 µg/mL and > 968 µM,> 256 µg/mL,> 256 µg/mL and > 968 µM,> 256 µg/mL and > 968 µM,> 256 µg/mL and > 968 µM,"CCCCNc1ccc(C(=O)OCCN(C)C)cc1 [TEC, tetracaine, reference compound]",>256 µg/mL,>256 µg/mL,224000 ± 6520 nM,,,,,,,,,
